From patent US9737525B2, “Small molecule activators of NRF2 pathway” (The General Hospital Corporation, priority 2013, dated 2017)
Read-outs that look alike come from different tables or passages of the source.

How the values were obtained:
[1] = test system: LUHMES cells overexpressing aSyn; assay: Viability assay (adenylate kinase release) in differentiated LUHMES cells overexpressing aSyn; format: cell-based; conditions: 0.4 μM and 1 μM, 96 hr
Method: LUHMES cells were maintained as proliferating cultures and differentiated into post-mitotic-like neurons on Nunclon plates and flasks, pre-coated with 50 μg/mL poly-L-ornithine (Sigma) and 1 μg/mL fibronectin (Sigma). Specifically, 8×10^6 proliferating LUHMES cells were seeded into a T175 flask containing proliferation medium, consisting of advanced DEMEM/F12 (Invitrogen), 2 mM L-glutamine (Sigma-Aldrich), 1×N2 supplement (Invitrogen) and 40 ng/mL recombinant human bFGF (R&D Systems). After 24 hr, proliferation medium was replaced with differentiation medium, composed of advanced DMEM/F12 (Invitrogen), 2 mM L-glutamine (Sigma-Aldrich), 1×N2 supplement (Invitrogen), 1 mM dibutyryl 3′, 5′-cyclic adenosine monophosphate (Sigma-Aldrich), 2.25 μM tetracycline and 2 ng/mL recombinant human GDNF (R&D Systems). 48 hr later, cells were trypsinized and seeded into 24-well plates, containing 1 mL of differentiation medium and 250,000 cells/well.
For lenti-virus based expression the following transfer plasmids have been constructed. […] The measurement of transgene expression has been determined by qRT PCR using SYBR GREEN, after infection of 293-Hek-cells, and specific primers to the woodchuck hepatitis virus posttranscriptional regulatory element (WPRE) as described previously (PMID: 12718761). […]

[2] = target: recombinant human KEAP1 protein (Homo sapiens (Human), UniProt Q14145); assay: SPR (Surface Plasmon Resonance) Biacore binding assay
Chain of recombinant human KEAP1 protein (Q14145 whole entry): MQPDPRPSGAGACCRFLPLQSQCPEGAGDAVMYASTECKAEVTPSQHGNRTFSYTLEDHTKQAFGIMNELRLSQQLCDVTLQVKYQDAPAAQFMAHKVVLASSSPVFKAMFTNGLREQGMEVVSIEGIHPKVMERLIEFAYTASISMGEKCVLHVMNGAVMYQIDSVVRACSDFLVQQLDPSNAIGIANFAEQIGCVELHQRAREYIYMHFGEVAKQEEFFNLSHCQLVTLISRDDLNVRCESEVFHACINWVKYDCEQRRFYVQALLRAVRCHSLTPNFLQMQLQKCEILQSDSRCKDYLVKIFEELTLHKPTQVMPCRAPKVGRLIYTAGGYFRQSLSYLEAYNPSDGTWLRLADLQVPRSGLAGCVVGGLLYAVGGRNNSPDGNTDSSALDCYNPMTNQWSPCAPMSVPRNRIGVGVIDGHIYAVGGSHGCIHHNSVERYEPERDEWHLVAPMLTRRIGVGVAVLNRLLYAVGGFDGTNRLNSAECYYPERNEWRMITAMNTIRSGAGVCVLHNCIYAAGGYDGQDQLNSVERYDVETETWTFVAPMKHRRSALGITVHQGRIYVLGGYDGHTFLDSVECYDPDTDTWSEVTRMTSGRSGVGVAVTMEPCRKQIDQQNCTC
Method: Briefly, compound MIND4-17 and MIND4 binding to baculovirous expressed KEAP1 by Surface Plasmon Resonance (SPR) binding Biacore assay was performed by CRO Precision Antibody, Inc. Binding experiments were performed on Biacore T-200 at 25° C. using CM5 chip. Anti-GST tag antibody was immobilized by amine coupling. The ligand KEAP1 was captured until 800 RU was reached. Antigen was flowed over the chip at variable concentrations. Binding of analyte to the ligand was monitored in real time to obtain on (ka) and off (kd) rates. The equilibrium constant (KD) was calculated from the observed ka and kd. In pilot experiment the analytes MIND4 and MIND4-17 were flowed over the chip at 3 different concentrations as indicated and kinetic analysis was performed. Full kinetic analysis was performed for MIND4-17 using analyte concentrations of 140 μM (the saturating amount) and run at serial dilutions 70, 35, 17.5, 8.75, 4.375 and 0. Chi square (χ^2) analysis was carried out between the actual Sensorgram (colored line) and the sensorgram generated from the BIAnalysis software (black line) to determine the accuracy of the analysis. (χ^2) value within 2-1 is considered significant (accurate) and below 1 is highly significant (highly accurate). The flow rate used for capturing the ligand was […] and the flow rate for kinetics analysis was […]. The Biacore binding assay was performed using assay buffer: 10 mM HEPES buffer (pH 7.4), 150 mM NaCl, 3 mM EDTA, 0.005% P20 (polyoxyethylenesorbitan), 5% DMSO; regeneration buffer: 10 mM HEPES buffer (pH 7.4), 150 mM NaCl, 3 mM EDTA, 0.005% P20 (polyoxyethylenesorbitan), 5% DMSO; and conjugation buffer: 10 mM sodium acetate buffer (pH 4.5).

Compound	Protection against αSyn toxicity [1]	Kd [2] [µM]	Mode of binding to KEAP1 [2]	Kd ([2]; 25° C., kinetic analysis) [µM]
O=[N+]([O-])c1ccc(Sc2nnc(COc3ccccc3)n2-c2ccccc2)c2ncccc12 [MIND4, 5-nitro-8-{[5-(phenoxymethyl)-4-phenyl-4H-1,2,4-triazol-3-yl]thio}quinoline]	only mild protection	22.8	reversible binding	22.8
O=[N+]([O-])c1ccc(Sc2nnc(COc3ccccc3)n2-c2ccccc2)nc1 [MIND4-17]	significant protective effects	16.5	reversible binding	16.5
